Data: patent publication US20040044178A1, “Hepatotropic conjugates of antiblastic drugs accomplishing a loco-regional chemotherapy of liver micrometastases after adminstration by peripheral venous route” (priority 2001, published 2004)
Where two headings read alike, the source gives them in different places.

Tests used:
[1] = test system: hepatic metastases of murine colon carcinoma C-26 cells; experiment: Effect of free and conjugated FUdR on liver metastases of C-26 cells in mouse; type: in vivo; conditions: for Increase of liver weight: saline 1.22 ± 0.25; for Total Liver DNA: saline 11.83 ± 1.75
Procedure: (§1) Female Balb/C mice 7-8 weeks old (weighing 16-19 g) and male Wistar rats (weighing 170-190 g) were used. They were obtained from Harlan Italy and were maintained in an animal facility at the Department of Experimental Pathology, Bologna, receiving humane care, in accordance with European Legislation. The protocols of the experiments were approved by the Ethical Committee of the University of Bologna. Animals. were fed a standard pellet diet ad lib.
Compounds were injected intravenously every other day, starting 24 h after inoculation of tumour cells. Four administrations were performed, and the animals were sacrificed one day after the injection.

[2] = test system: serum alanine aminotransferase (ALT); experiment: Effect on alanine aminotransferase (ALT) serum levels in mouse; type: in vivo
Procedure: To verify whether the selective delivery of FUdR to hepatic cells accomplished by the conjugate causes liver damage, we compared the effect of free and conjugated FUdR on the serum alanine aminotransferase (ALT) (EC 2.6.1.2) level in mice (Table 3). An increase in the level of this enzyme is an index of hepatocyte damage. The drugs were administered according to the schedule used for the experiments on the growth of hepatic metastases.

[3] = [^3H]FUdR levels in inferior vena cava (IVC) and hepatic veins (HV) of rats intravenously injected with free or L-HSA conjugated [^3H]FUdR; type: in vivo; conditions: rat
Excerpt: Two radioactive conjugates were synthesised: one labelled in the carrier (L-[^14C]HSA-FUdR) and one in the drug moiety (L-HSA-[^3H]FUdR). […] The conjugateradioactive in the drug moiety (three preparations) was obtained using [^3H]FUdR (Moravek).
as §1, with “They” for “Female Balb/C mice 7-8 weeks old (weighing 16-19 g) and male Wistar rats (weighing 170-190 g) were used. They”
Plasma levels of free [^3H]FUdR were measured by using the isotope dilution procedure and HPLC. In order to identify the elution time of [^3H]FUdR in HPLC chromatogram and to evaluate the recovery, 15 μg of unlabeled FUdR was added to each plasma sample (400 μl), kept cold in ice. Plasma proteins were removed by the addition of 30 μl trichloroacetic acid 80% and centrifugation at 2-4° C. After diethylether extraction to eliminate trichloroacetic acid, […] supernatant was chromatographed on a Spherisorb ODS2 equilibrated on 20 mM sodium tetraborate pH 7.5 and eluted with a linear gradient of methanol (0-30%). Radioactivity eluting at the position of FUdR marker was counted and the plasma concentration of [^3H]FUdR was calculated taking into account the recovery of the marker (measured by UV absorbance) and the specific activity (SA) of injected [^3H]FUdR. […] When radioactivity of FUdR peak was lower than 200 dpm, the plasma concentration of [^3H]FUdR was considered below a measurable level (BML). With a 90% recovery of FUdR marker, the lowest measurable plasma concentration was about 25 ng [^3H]FUdR/ml.
These concentrations are a measure of drug levels in systemic circulation and in liver blood, respectively.

[4] = patients with colorectal cancer, intravenous continuous infusion of a therapeutic dose; cited from earlier work
[5] = Exp. 1, daily dose 5 μg/g i.v. every other day x4, NS

concentration at 15 min ([3]; male, Wistar, plasma of hepatic vein blood, iv, i.v. 2.5 μg/g, 15 min, read-out: [^3H]FUdR level HV): 57.6 ± 9 ng/mL | concentration at 7 min ([3]; male, Wistar, plasma of hepatic vein blood, iv, i.v. 10 μg/g, 7 min, read-out: [^3H]FUdR level HV): 385 ng/mL | concentration at 15 min ([3]; male, Wistar, plasma of hepatic vein blood, iv, i.v. 10 μg/g, 15 min, read-out: [^3H]FUdR level HV): 203 ng/mL | concentration at 30 min ([3]; male, Wistar, plasma of hepatic vein blood, iv, i.v. 10 μg/g, 30 min, read-out: [^3H]FUdR level HV): 77.5 ± 43.6 ng/mL | concentration at 15 min ([3]; male, Wistar, plasma of hepatic vein blood, iv, i.v. free 1.2 μg/g, 15 min, read-out: [^3H]FUdR level HV): 40.9 ± 7.7 ng/mL | concentration at 7 min ([3]; male, Wistar, plasma of inferior vena cava blood, iv, i.v. 0.15 μg/g, 7 min, read-out: [^3H]FUdR level IVC): 80.1 ± 4.2 ng/mL | concentration at 15 min ([3]; male, Wistar, plasma of inferior vena cava blood, iv, i.v. 2.5 μg/g, 15 min, read-out: [^3H]FUdR level IVC): 404 ± 47.9 ng/mL | concentration at 30 min ([3]; male, Wistar, plasma of inferior vena cava blood, iv, i.v. 2.5 μg/g, 30 min, read-out: [^3H]FUdR level IVC): 156 ± 51.9 ng/mL | concentration at 45 min ([3]; male, Wistar, plasma of inferior vena cava blood, iv, i.v. 2.5 μg/g, 45 min, read-out: [^3H]FUdR level IVC): 25.5 ± 0.2 ng/mL | concentration at 7 min ([3]; male, Wistar, plasma of inferior vena cava blood, iv, i.v. 10 μg/g, 7 min, read-out: [^3H]FUdR level IVC): 1570 ng/mL | concentration at 15 min ([3]; male, Wistar, plasma of inferior vena cava blood, iv, i.v. 10 μg/g, 15 min, read-out: [^3H]FUdR level IVC): 1060 ng/mL | concentration at 30 min ([3]; male, Wistar, plasma of inferior vena cava blood, iv, i.v. 10 μg/g, 30 min, read-out: [^3H]FUdR level IVC): 467 ± 228 ng/mL | concentration at 15 min ([3]; male, Wistar, plasma of inferior vena cava blood, iv, i.v. free 1.2 μg/g, 15 min, read-out: [^3H]FUdR level IVC): 275.2 ± 0.7 ng/mL | concentration at 30 min ([3]; male, Wistar, plasma of inferior vena cava blood, iv, i.v. free 1.2 μg/g, 30 min, read-out: [^3H]FUdR level IVC): 38.9 ± 5.8 ng/mL | Levels in HV / Levels in IVC ([3]; i.v. 2.5 μg/g, 15 min): 0.15 ± 0.04 | Levels in HV / Levels in IVC ([3]; i.v. 2.5 μg/g, 30 min): 0.19 | [^3H]FUdR level HV ([3]; i.v. 2.5 μg/g, 45 min): BML (Below Measurable Level (<25 ng/ml)) | Levels in HV / Levels in IVC ([3]; i.v. 10 μg/g, 7 min): 0.24 | Levels in HV / Levels in IVC ([3]; i.v. 10 μg/g, 15 min): 0.19 | Levels in HV / Levels in IVC ([3]; i.v. 10 μg/g, 30 min): 0.16 ± 0.02 | Levels in HV / Levels in IVC ([3]; i.v. free 1.2 μg/g, 15 min): 0.15 ± 0.03 | [^3H]FUdR level HV ([3]; i.v. free 1.2 μg/g, 30 min): BML (Below Measurable Level (<25 ng/ml)) | [^3H]FUdR level HV ([3]; i.v. free 1.2 μg/g, 60 min): BML (Below Measurable Level (<25 ng/ml)) | [^3H]FUdR level IVC ([3]; i.v. free 1.2 μg/g, 60 min): BML (Below Measurable Level (<25 ng/ml))
SMILES: O=c1[nH]c(=O)n([C@H]2C[C@H](O)[C@@H](CO)O2)cc1F [Free FUdR, 5-fluoro-2′-deoxyuridine]
Increase of liver weight [1, 5]: 1.00 ± 0.17 g | Total Liver DNA [1, 5]: 9.47 ± 1.06 mg | Increase of liver weight ([1]; Exp. 1, daily dose 10 μg/g i.v. every other day x4, p = 0.070): 0.64 ± 0.15 g | Total Liver DNA ([1]; Exp. 1, daily dose 10 μg/g i.v. every other day x4, p = 0.041): 7.32 ± 0.91 mg | Daily dose that inhibited the tumour growth ([1]; i.v. every other day, four administrations): 10 µg/g | Serum ALT levels ([2]; Exp 2, 50 μg/g, four i.v. injections on alternate days, saline 64.5 ± 15.0, p = 0.045): 114.8 ± 16.0 p = 0.045 U/I | Effect on serum ALT level ([2]; dose 5 times higher than that active on the metastases): increase in ALT levels at the limit of statistical significance | [^3H]FUdR level HV ([3]; i.v. 0.15 μg/g, 7 min): BML^b) (Below Measurable Level (<25 ng/ml)) | Estimated blood concentration of the drug [4]: about 0.2 ng/ml
